Assay results reported in ChEMBL document CHEMBL1765084, “Pyrimidine-2,4,6-trione derivatives and their inhibition of mutant SOD1-dependent protein aggregation. Toward a treatment for amyotrophic lateral sclerosis” (J Med Chem, 2011).
≈ marks a conversion by molar mass, not a printed value.

Key:
PC-12 = test: Cytoprotection against SOD1 G93A mutant induced cytotoxicity in rat PC12 cells assessed as reduction of protein aggregates by fluorescent assay; format: functional, cell-based
[1] = Ratio of permeability from basolateral to apical side over apical to basolateral side in human Caco2 cells; conditions: Caco-2
[2] = Solubility of the compound in PBS buffer after 16 hrs
Caco-2 [3] = test: Apparent Permeability across apical side to basolateral side in human Caco2 cells at 50 uM after 2 hrs; conditions: caco-2, 2 h
Liver = test: Half life of the compound in B6SJL mouse liver microsome; conditions: microsomes
Caco-2 [4] = test: Apparent Permeability across basolateral to apical side in human Caco2 cells at 50 uM after 2 hrs; conditions: caco-2, 2 h
Plasma = test: Half life in B6SJL mouse plasma by LC-MS/MS analysis
Liver microsomes = test: Half life of the compound in human liver microsomes

SMILES	EC50 (PC-12) [nM]	other results
Cc1cc(C=C2C(=O)N(CCc3ccccc3)C(=O)N(CCc3ccccc3)C2=O)c(C)n1-c1ccccc1	870	
O=C1CC(=O)N(CCCc2ccccc2)C(=O)N1CCCc1ccccc1	1320	
O=C1CC(=O)N(CCOc2ccccc2)C(=O)N1CCOc1ccccc1	3260	
O=C1C(=Cc2ccc(OCc3ccccc3)cc2)C(=O)N(CCc2ccccc2)C(=O)N1CCc1ccccc1	2840	
O=C1CC(=O)N(CCc2cccs2)C(=O)N1CCc1ccc(F)cc1	2160	
CCCCCCCCN1C(=O)CC(=O)N(CCc2ccccc2)C1=O	710	
O=C1CC(=O)N(CCCCc2ccccc2)C(=O)N1CCCCc1ccccc1	680	efflux ratio [1]: 3.3; solubility [2]: 105 µM (≈ 41.2 µg/mL); Papp (Caco-2 [3]): 9.2 ×10⁻⁶ cm/s; t1/2 (Liver): 11 min; Papp (Caco-2 [4]): 30.2 ×10⁻⁶ cm/s; t1/2 (Plasma): 21.8 min; t1/2 (Liver microsomes): 15 min
O=C1CC(=O)N(Cc2ccccc2)C(=O)N1CCc1ccccc1	1900	
O=C1CC(=O)N(CCc2ccc(F)cc2)C(=O)N1CCOc1ccccc1	1320	
COc1ccc(CCN2C(=O)CC(=O)N(CCc3ccccc3)C2=O)cc1	2940	
COc1ccc(C=C2C(=O)N(C3CCCCC3)C(=O)N(C3CCCCC3)C2=O)c(OC)c1	2580	
O=C1C(=Cc2c(Cl)cccc2Cl)C(=O)N(CCc2ccccc2)C(=O)N1CCc1ccccc1	3100	
O=C1CC(=O)N(CCc2ccccc2)C(=O)N1CCC1=CCCCC1	1740	
O=C1C(=O)N(C2CCCCC2)C(=O)N1C1CCCCC1	> 32000	
O=C1C(=Cc2ccc[nH]2)C(=O)N(CCc2ccccc2)C(=O)N1CCc1ccccc1	3550	
CC(C)OCCN1C(=O)CC(=O)N(CCc2ccc(F)cc2)C1=O	2970	
COc1ccc(CCN2C(=O)CC(=O)N(CCc3ccc(OC)cc3)C2=O)cc1	3360	
O=C1C(=CC2CCCCC2)C(=O)N(CCc2ccccc2)C(=O)N1CCc1ccccc1	> 32000	
O=C1CC(=O)N(CCc2cccs2)C(=O)N1CCc1ccccc1	3390	
O=C1CC(=O)N(Cc2ccccc2)C(=O)N1Cc1ccccc1	4580	
CC1(C)C(=O)N(CCc2ccccc2)C(=O)N(CCc2ccccc2)C1=O	> 32000	
O=C1CC(=O)N(CCc2ccc(Cl)cc2)C(=O)N1CCc1ccccc1	1190	
O=C1CC(=O)N(C2CCc3ccccc32)C(=O)N1C1CCc2ccccc21 (configuration not stated)	> 32000	
O=c1cc(Cl)n(CCc2ccccc2)c(=O)n1CCc1ccccc1	> 32000	
COc1ccc(CCN2C(=O)CC(=O)N(CCc3ccc(OC)c(OC)c3)C2=O)cc1OC	11600	
